Test results: patent publication US20260259229A1, “FATIGUE SYNDROME SIGNATURES AND METHODS OF TREATMENT” (The Board of Trustees of the Leland Stanford Junior …, priority 2023, published 2026)
Entries after “also recorded” stand apart in the source; their conditions may differ.

What was measured:
CD4 T cells = assay: Screening for reversal of oxidative damage: PBMCs treated with ROS inducer, then candidate drug; lipid peroxidation by flow cytometry (FIG. 9B, 9F); format: cell-based, human; conditions: drug after ROS inducer, versus positive control cells treated only with ROS inducer (FIG. 9F)
Experimental: FIGS. 9A-9F. Screening assays. (A) To identify drugs that can protect immune cell populations from oxidative stress, PBMCs are treated with candidate drugs (e.g., liproxstatin-1, metformin) for an hour, before treatment with ROS inducer (e.g., cumene […], tert-butyl hydroperoxide). By subsequently labeling cells with metabolic dyes to track oxidative stress parameters, comparisons with immune cells only treated with ROS inducer enable quantification of drugs capacity to protect against oxidative stress and damage in immune cell populations. (B) To identify drugs that can reverse oxidative stress and damage in immune cell populations, PBMCs are treated first with a ROS inducer for 30 minutes to an hour, before subsequent treatment with candidate drugs. By labeling with metabolic dyes and comparing the drug treated immune cell populations to those treated only with ROS inducer, we can quantify the capacity for drugs to reverse oxidative stress and damage in PBMCs. (C) To link these metabolic changes with immune cell function, control and disease PBMCs (e.g., from fatigue-syndrome patients) are labeled with proliferation dyes, upon which T cells are stimulated with anti-CD3/anti-CD28 antibodies and IL-2. By treating PBMCs with drugs identified from methodologies described in 9A and 9B, we can assess how metabolic changes to oxidative stress levels in drugs also modulate functional capacity of donor T cells to proliferate. While flowchart is specific to T cells (e.g., anti-CD3/anti-CD28 stimulation), the core methodology is applicable to other immune cell populations, where changes in immune cells capacity to proliferate can be assessed upon treatment with candidate drugs. (D) Application of methodology to a specific CFS patient is shown, where PBMCs treated with ROS-modulating drugs including N-acetylcysteine, metformin, and liproxstatin-1. Flow cytometry data is shown for CD4 T cells, where the x-axis corresponds to CellTraceViolet (proliferation dye) staining and the y-axis corresponds to total ROS levels. […] (E) Proportion of proliferating T cells are shown for a specific CFS patient (patient 27) along with their […] and […]. […] Lipid peroxidation changes are shown, where higher oxidative damage corresponds to a lower value on the y-axis. Identified drugs include N-acetylcysteine (NAC), metformin, liproxstatin-1, nicotinamide mononucleotide (NMN), oxaloacetate, MitoQ, Abilify, Colchicine, Naltrexone. Although this methodology is shown for CD4 T cells, it is broadly applicable to other immune cell populations (e.g., myeloid cells).
Staining: To stain for mitochondrial parameters, cells were stained with BioTracker ATP-Red Live Cell Dye (Sigma Aldrich), MitoTracker Deep Red FM (ThermoFisher), MitoSpy Green FM (BioLegend). To stain for ROS levels, cells were stained with DCFDA cellular ROS assay kit (abcam), MitoSOX Red Mitochondrial Superoxide detector (ThermoFisher). To stain for glutathione clearance and oxidative damage, cells were stained with ThiolTracker Violet (ThermoFisher), HCS LipidTOX Green Neutral Lipid Stain (ThermoFisher) for lipid droplet levels, and Image-iT™ Lipid Peroxidation Kit, ratiometric lipid peroxidation sensor (ThermoFisher). To capture viability, cells were stained with LIVE/DEAD Fixable Far Red Dead Cell Stain (ThermoFisher).

[1] = system: CD4 and CD8 T cells (donor PBMCs); assay: T cell proliferation assay: CellTrace Violet dye dilution, PBMCs stimulated with anti-CD3/anti-CD28 antibodies and IL-2, treated with ROS-modulating drugs; format: cell-based, human; conditions: for proportion of proliferating T cells, HC and ME-CFS PBMCs (FIG. 15): 100 μM N-acetylcysteine, liproxstatin-1, 5-days post activation; for effect in lowering T cell proliferation in LC female donors: female LC PBMCs (FIG. 16); for effect in reducing T cell hyperproliferation in ME/CFS donors: female ME/CFS donors, p: NAC CD4 0.82, CD8 0.7, metformin CD4 0.041, CD8 0.39, liproxstatin-1 CD4 0.31, CD8 0.18; for reduction in T cell proliferation upon treatment, male ME/CFS: male ME/CFS PBMCs (FIG. 17: 100 μM N-acetylcysteine, 10 μM metformin, 1 μM liproxstatin-1); for proportion of proliferating CD4 T cells upon stimulation: patient 27 (ME/CFS) PBMCs treated at day 0, read 5 days after stimulation, untreated 79.3%
patients = conditions: double-blinded phase III studies on >1300 patients, especially among female patients; cited from earlier work

| Compound | capacity for reversing oxidative damage (lipid peroxidation changes) (CD4 T cells) | effect in reducing T cell hyperproliferation in ME/CFS donors ([1]; 5 days post stimulation) | reduction in T cell proliferation upon treatment, male ME/CFS [1] | proportion of proliferating CD4 T cells upon stimulation [1] | further results |
| --- | --- | --- | --- | --- | --- |
| COC1=C(OC)C(=O)C(CCCCCCCCCC[P+](c2ccccc2)(c2ccccc2)c2ccccc2)=C(C)C1=O [MitoQ] | reversing oxidative damage | – | – | – | – |
| O=C1CC[C@@]2(O)[C@H]3Cc4ccc(O)c5c4[C@@]2(CCN3CC2CC2)[C@H]1O5 [Naltrexone] | reversing oxidative damage | – | – | – | – |
| Clc1cccc(CN=C2Nc3ccccc3NC23CCNCC3)c1 [liproxstatin-1] | reversing oxidative damage | did not show a statistically significant effect | did not observe any reduction | 64.5% | proportion of proliferating T cells, HC and ME-CFS PBMCs (FIG. 15) [1]: selectively lowers proliferation in ME-CFS and not the HC donors; effect in lowering T cell proliferation in LC female donors ([1]; 5 days post stimulation): did not show a statistically significant effect |
| O=C1CCc2ccc(OCCCCN3CCN(c4cccc(Cl)c4Cl)CC3)cc2N1 [Abilify] | reversing oxidative damage | – | – | – | – |
| NC(=O)c1ccc[n+]([C@@H]2O[C@H](COP(=O)([O-])O)[C@@H](O)[C@H]2O)c1 [nicotinamide mononucleotide] | reversing oxidative damage | – | – | – | – |
| CC(=O)N[C@@H](CS)C(=O)O [NAC, N-acetylcysteine] | reversing oxidative damage | did not have any effect | did not observe any reduction | 54.3% | proportion of proliferating T cells, HC and ME-CFS PBMCs (FIG. 15) [1]: no difference or decrease |
| COc1cc2c(c(OC)c1OC)-c1ccc(OC)c(=O)cc1[C@@H](NC(C)=O)CC2 [Colchicine] | reversing oxidative damage | – | – | – | – |
| CN(C)C(=N)N=C(N)N [metformin] | reversing oxidative damage | statistically significant effect in reducing CD4 T cell hyperproliferation; also recorded: statistically significant reduction | did not observe any reduction | 53.2% | reduction of Long COVID incidence (patients): 41%; effect on T cell proliferation in healthy controls ([1]; HC donors, 5 days post stimulation, metformin CD4 p=1, CD8 p=0.69): no effect; also recorded: does not alter proliferation; average reduction of CD4 T cell proliferation ([1]; LC donor PBMCs, metformin treatment (10 μM, FIG. 16B), p=0.31): 5.2%; average reduction of CD8 T cell proliferation ([1]; LC donor PBMCs, metformin treatment (10 μM, FIG. 16B), p=0.42): 7.6%; effect in lowering T cell proliferation in LC female donors ([1]; 5 days post stimulation): smaller and non-statistically significant effect |
